Measured values: US20090232750A1, “Compositions for indoor tanning” (priority 2008, published 2009)

Experiments:
skin (tanning) = experiment: D-ribose lotion tested against commercial tanning creams on upper front thigh; assay type: in vivo
Method: In other experiments, D-ribose was tested against Jergen's Dark Tanning cream on the upper front thigh of the subject. Each was applied liberally over a six inch by four inch area twice a day for five days. The “tanning” agent in this cream is unknown. The areas on which the Jergen's was applied tanned in 36 hours, hit maximum darkness in two days and faded in eight days. […] In this test, the D-ribose caused maximum darkness in five days and persisted for two weeks after application was discontinued.
D-ribose was also tested against l'Oreal Sublime Glow as above. The active ingredients in this cream were 7.5% octinoate, octsalate 5.0%, octocrylene 3.0% and oxybenzone 6.17%. […] This color began fading within two days of last application and was completely faded within a week.
The evenness of the D-ribose tanned areas can be attributed to the natural production of melanin due to the stimulation by D-ribose penetrating and diffusing to the dermal cells.

[1] = system: cultured normal human fibroblasts; details: cited from earlier work
[2] = system: fibroblasts in the basal layer; details: cited from earlier work
lymphocytes = details: cell culture; U.S. Pat. No. 6,663,859; cited from earlier work
skin = experiment: Preliminary experiments: D-ribose without penetrant applied to wound or skin; assay type: in vivo
From the text: Since the object of this invention is to deliver active ingredient to the basal and dermal cells below the epidermis, when the skin barrier is intact, it has been found necessary to include a penetrant in the solutions, lotions or creams of this invention. Such a penetrant will enhance the delivery of active ingredient by transitory disruption of the cell to cell connections of the skin. Penetrants in general include ionic detergents, non-ionic detergents, fatty acids, organic solvents and oils. Certain constructs such as liposomes and nanoparticles can also be used to transport active ingredient through the stratum corneum barrier. It is well known in the industry to select a penetrant with the desired characteristics, which vary in effect from the intense penetration of the solvent dimethyl sulfoxide (DMSO) which cause the rapid co-transport past the skin barrier of any agent present on the skin, to the milder action of dilute ethanol. Of recent interest are the constructs termed liposomes and nanoparticles, which are molecules that form closed structures that can incorporate an active ingredient. Liposomes and nanoparticles can readily penetrate otherwise impermeable barriers.
The skin is a barrier. […]

melanocytes [3] = experiment: 4% D-ribose lotion on back of forearm, applied one to four days (melanocyte stimulation vs Maillard reaction); assay type: in vivo
From the text: In order to ascertain that the tan color was due to the stimulation of melanocytes and not to a chemical reaction such as the Maillard reaction, the subject applied 4% D-ribose in the above referenced lotion to the back of the forearm. The lotion was applied one day only; two days; three days; and four days. […] By one week after application, the areas to which lotion was applied for one or two days began fading and were completely faded by ten days. The areas to which was applied for three or four days also began fading at one week after application and were completely faded by ten days after last application. The subject had areas of vitilago, a scar and freckles.

melanocytes [4] = experiment: Effect of D-ribose on melanocytes in vivo: four concentrations in commercial lotion on inside forearm; details: for Days to maximum tan / Days to first sign of tanning: twice a day, inside forearm; for Days to first sign of tanning: no sun light; for Spread of tanned area beyond the application site: two inch application area
From the text: To determine the effect of D-ribose on melanocytes, the dermal cells that produce a tanning color when exposed to sunlight, four concentrations of D-ribose suspended in a commercial lotion were applied with a cotton applicator twice a day to two inch areas of A subject's inside forearm. The test area was not exposed to sun light. The composition of the lotion was: water, glycerin, mineral oil, stearic acid, glycol stearate, stearamide AMP, petrolatum, dimethicone, chamomile, helianthus, sambucas, theobroma, seed butter, glyceryl, stearate, cetyl alcohol, triethanolamine, acetylated lanolin alcohol and cetyl acetate. The results are shown in Table I. Application was stopped after 11 days. Color began to fade at 14 days in all cases and was gone about two weeks after last application. […] The color spread, presumably because of lateral diffusion of the D-ribose within the dermis, stimulating melanocytes outside the application site. The spread area decreased in intensity of color as the diffused D-ribose decreased in concentration.

skeletal muscle ATP = details: oral administration; U.S. Pat. Nos. 6,159,942 and 6,534,480; cited from earlier work
[5] = upper front thigh, twice a day for five days
[6] = composition containing 1% D-ribose, female volunteers
[7] = 4% D-ribose lotion applied for one or two days
[8] = 4% D-ribose lotion applied for three or four days
[9] = all cases, application stopped after 11 days

SMILES: O=C[C@H](O)[C@H](O)[C@H](O)CO [D-ribose]
- Uniformity of tanned area (skin (tanning); all experiments): uniform and not blotchy
- Persistence of tan after application was discontinued (skin (tanning); [5]): two
- Time to maximum darkness (skin (tanning); [5]): five
- Spread of color beyond area of application (skin (tanning); upper front thigh, twice a day for five days, D-ribose at 4% in lotion): spread beyond the area of application
- Effect on fibroblasts subjected to hypoxic shock [1]: protective effect
- Effect on face wrinkles [2, 6]: reduce face wrinkles
- Tanning effect [2, 6]: No tanning effect
- Melanin formation ([2]; lower amounts of D-ribose, as noted in the '707 application): do not stimulate melanin formation
- Effect on growth of lymphocytes (lymphocytes): stimulates the growth of lymphocytes
- Effect on tanning (skin; D-ribose in water applied to the skin, no penetrant): no effect on tanning
- Effect on improving skin (skin; preliminary application of ribose without penetrant): unsuccessful
- Tanning by day three (melanocytes [3]; 4% D-ribose in lotion, back of forearm, all four areas (applied one, two, three, four days)): lightly tanned
- Time after application at which areas began fading (melanocytes [3]; [7]): one
- Time until completely faded (melanocytes [3]; [7]): ten
- Time after application at which areas began fading (melanocytes [3]; [8]): one
- Time after last application until completely faded (melanocytes [3]; [8]): ten
- Tanning of areas of vitilago and scarring (melanocytes [3]; subject's areas of vitilago and a scar): did not tan
- Effect on freckles (melanocytes [3]; subject's freckles): got darker
- Days to maximum tan (melanocytes [4]; 1.0% w/v D-ribose in lotion): No tanning
- Days to first sign of tanning (melanocytes [4]; 1.0% w/v D-ribose in lotion): No tanning
- Color of spread area versus center of application (melanocytes [4]; 4% w/v D-ribose): diameter. The spread area is not as dark as the
- Days to maximum tan (melanocytes [4]; 4% w/v D-ribose in lotion): Six
- Days to first sign of tanning (melanocytes [4]; 4% w/v D-ribose in lotion): Four
- Diameter of tanned area (melanocytes [4]; 4% w/v D-ribose, at six days): the tanned area is about four inches in
- Spread of tanned area beyond the application site (melanocytes [4]; 4% w/v D-ribose, at six days): two inches beyond the application site, that is,
- Color of tan compared with other concentration (melanocytes [4]; 6% w/v D-ribose): A little darker than the 4%, the tanned area has
- Diameter of tanned area (melanocytes [4]; 6% w/v D-ribose): site, that is, the tanned area is about four inches
- Days to maximum tan (melanocytes [4]; 6% w/v D-ribose in lotion): Six
- Days to first sign of tanning (melanocytes [4]; 6% w/v D-ribose in lotion): Four
- Spread of tanned area beyond the application site (melanocytes [4]; 6% w/v D-ribose): spread about two inches beyond the application
- Color of tan compared with other concentration (melanocytes [4]; 10% w/v D-ribose): the same as for the 6%.
- Diameter of tanned area (melanocytes [4]; 10% w/v D-ribose): is now about eight inches in diameter. Color is
- Days to maximum tan (melanocytes [4]; 10% w/v D-ribose in lotion): Six
- Days to first sign of tanning (melanocytes [4]; 10% w/v D-ribose in lotion): Four
- Spread of tanned area beyond the application site (melanocytes [4]; 10% w/v D-ribose): The tanned area has spread about three inches
- Day at which color began to fade (melanocytes [4]; [9]): 14 days
- Time after last application until color was gone (melanocytes [4]; [9]): about two
- Intensity of tan reached (melanocytes [4]; fair-skinned subject): medium intensity
- Quality of tan color (melanocytes [4]; fair-skinned subject): identical to that resulting from normal sun tanning
- Effect on ATP levels in skeletal muscle (skeletal muscle ATP): raises ATP levels in skeletal muscle
